Our source for the melting point values is patent publication US7034053B2, “Phenethanolamine derivatives, compositions, and their use as agonists at atypical beta-adrenoreceptors” (SmithKline Beecham Corporation, priority 2001, dated 2006).

One may read the melting point as the temperature of the solid-liquid transition.

In the case of `O=C(O)c1ccsc1-c1cccc(NCCNC[C@H](O)c2cccc(Cl)c2)c1` [Example 5, 2-(3-{[2-(3-Chlorophenyl)-2R-hydroxyl-ethylamino]ethylamino}phenyl)thiophene-3-carboxylic acid], the melting point was 275 °C (dec.). Then `O=C(O)c1ccoc1-c1cccc(NCCNC[C@H](O)c2cccc(Cl)c2)c1` [Example 2, 2-(3-{[2-(3-Chlorophenyl)-2R-hydroxyl-ethylamino]ethylamino}phenyl)furan-3-carboxylic acid], with 250 °C (dec.).
